# Source: patent publication US11564911B2, “Small molecule dual-inhibitors of TRPV4 and TRPA1 for sanitizing and anesthetizing” (Duke University, priority 2016, dated 2023)
# Tests used:
# [1] = tested on: mouse paw-pad skin, UVB-photodermatitis; test: UVB-exposed paw-pad skin after topical GSK205: histopathology and mediators; type: in vivo
# Experimental: GSK205 topical treatment: A viscous solution of 68% EtOH/5% glycerol plus 1 mM or 5 mM GSK205 (none for control) was applied to hindpaws by rubbing in 20 μL, applied at time-points 1 hour and again 10 min before UV exposure.
# Routine procedures were followed as described previously (Chen et al., 2009). Mice were perfused transcardially with 30 mL PBS, followed by 30 mL 4% paraformaldehyde. Tissues, including the L5 DRGs (bilateral), and footpad preparations, were dissected and post-fixed in 4% paraformaldehyde. Tissue blocks were further cryoprotected in 30% sucrose in PBS for 24-48 hours. For mouse TRPV4, keratin-specific antibodies, phospho-ERK, IL-6, IL-1β, CXCL5 and caspase-1, tissue was prepared as frozen blocks and subsequently sectioned on a cryostat. For CD68, CD15 (neutrophil elastase) and CD3, mouse skin was prepared by 2% PFA perfusion. Footpad and DRG sections (both at 6-10 μm) were thaw-mounted, blocked with 5% normal goat serum (NGS; Jackson), then incubated overnight at 4° C. with the following primary antibodies: rabbit anti-TRPV4 (1:300; Abcam), mouse anti-keratin 14 (1:300; Abcam against C-terminal peptide beyond residue 850); rabbit anti-keratin 14 (1:1000; Fuchs-Lab), rabbit anti-phosph-ERK1/2 (1:500; Cell signaling technologies), goat anti-IL-1β (1:800; Abcam), goat anti-IL-6 (1:200; Santa Cruz Biotechnology Inc); rabbit anti-caspase-1 (1:200; Biovision Research Products, CA); goat anti-mouse LIX/CXCL5 (1:200; R&D Systems Inc), anti-CD68, anti-[…], and anti-CD3 (AbDSerotec). Immunodetection was accomplished with appropriate fluorescently-labeled secondary antibodies (AlexaFluor595, AlexaFluor488-conjugated antibodies at 1:600; Invitrogen; for CD15 biotinylated secondary antibody from donkey, 1:400 followed by rhodamine-streptavidine 1:250), or with peroxidase-linked detection reagents (for CD68) for 2 hours at room-temperature. Sections were rinsed, mounted, and cover-slipped with fluoromount (Sigma). Digital micrographs were obtained using a BX61 Olympus upright microscope, also with a Zeiss LSM510 confocal, both equipped with high-res CCD camera, and acquired with constant exposure settings, using ISEE or Zeiss Zen software. Morphometric analysis was conducted using ImageJ freeware (v1.45) with tailored regions-of-interest that spared the nuclear compartment. ImageJ was also used for determination of DRG surface area.
# [2] = tested on: primary mouse keratinocytes (1° MK); test: IL-1β secreted by cultured keratinocytes after UVB exposure (ELISA); type: cell-based; details: 5 μM GSK205
# Experimental: Before UV irradiation, culture media was replaced with PBS. The cells were then irradiated at a dose of 50 mJ/cm^2 with UVB. 24 hours later, supernatants were assayed using IL-1β ELISA (R&D Systems, Minneapolis, Minn.).
compound,measurement,setting,value
CN(CCc1ccc(Nc2nc(-c3cccnc3)cs2)cc1)Cc1ccccc1 [GSK205],CXCL5 upregulation in UVB-exposed footpad,[1]; topical 5 mM GSK205,significant blocks
same,IL-1β upregulation in UVB-exposed mouse skin,[1]; topical 5 mM GSK205,failed to upregulate
same,IL-6 upregulation in UVB-exposed footpad,[1]; topical 5 mM GSK205,significant blocks
same,histopathology of UVB-exposed paw skin,[1]; topical 5 mM GSK205,virtual elimination of inflammation
same,Edn1 mRNA-expression in UVB-exposed paw-pad skin,"[1]; topical 5 mM GSK205, 2 h and 24 h",unchanged
same,UVB-induced increase in IL-1β secretion by 1° MK,[2],completely eliminated
